Tested on: 282377-053-R-J1-PDC complex spheroid viability
Experiment: Anticancer human tumor 282377-053-R-J1-PDC patient-derived colon adenocarcinoma cell line growth inhibition [RAS]
Conditions: for IC50: curve of first compound; for viability, T/C: stronger effect = lower value
Summary of the method: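 Multi-cell-type spheroids: tumor cells plus HUVEC endothelial cells and mesenchymal stem cells. RAS-pathway inhibitors were combined with targeted agents, each dosed in half-log steps down from clinical Cmax, or from 10 microM when Cmax was unknown.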

[1] = second compound 0.000949 µM, first compound 0.0316 µM
[2] = second compound 0.000949 µM, first compound 0.1 µM
[3] = second compound 0.000949 µM, first compound 0.316 µM
[4] = second compound 0.000949 µM, first compound 1 µM
[5] = second compound 0.000949 µM, first compound 3.16 µM
[6] = second compound 0.000949 µM, first compound 10 µM
[7] = second compound 0.003 µM, first compound 0.0316 µM
[8] = second compound 0.003 µM, first compound 0.1 µM
[9] = second compound 0.003 µM, first compound 0.316 µM
[10] = second compound 0.003 µM, first compound 1 µM
[11] = second compound 0.003 µM, first compound 3.16 µM
[12] = second compound 0.003 µM, first compound 10 µM
[13] = second compound 0.00949 µM, first compound 0.0316 µM
[14] = second compound 0.00949 µM, first compound 0.1 µM
[15] = second compound 0.00949 µM, first compound 0.316 µM
[16] = second compound 0.00949 µM, first compound 1 µM
[17] = second compound 0.00949 µM, first compound 3.16 µM
[18] = second compound 0.00949 µM, first compound 10 µM
[19] = second compound 0.03 µM, first compound 0.0316 µM
[20] = second compound 0.03 µM, first compound 0.1 µM
[21] = second compound 0.03 µM, first compound 0.316 µM
[22] = second compound 0.03 µM, first compound 1 µM
[23] = second compound 0.03 µM, first compound 3.16 µM
[24] = second compound 0.03 µM, first compound 10 µM
[25] = second compound 0.0949 µM, first compound 0.0316 µM
[26] = second compound 0.0949 µM, first compound 0.1 µM
[27] = second compound 0.0949 µM, first compound 0.316 µM
[28] = second compound 0.0949 µM, first compound 1 µM
[29] = second compound 0.0949 µM, first compound 3.16 µM
[30] = second compound 0.0949 µM, first compound 10 µM
[31] = second compound 0.3 µM, first compound 0.0316 µM
[32] = second compound 0.3 µM, first compound 0.1 µM
[33] = second compound 0.3 µM, first compound 0.316 µM
[34] = second compound 0.3 µM, first compound 1 µM
[35] = second compound 0.3 µM, first compound 3.16 µM
[36] = second compound 0.3 µM, first compound 10 µM
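Further: spheroids exposed to agents for seven days before readout.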
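Wherever viability, T/C is given: luminescence viability as percent of DMSO vehicle control wells.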

CC(C)NCC(C(=O)N1CCN(c2ncnc3c2C(C)CC3O)CC1)c1ccc(Cl)cc1 (stereo unspecified) + CCn1c(-c2cccnc2C(C)OC)c2c3cc(ccc31)N1CCOC(CC(NC(=O)C(C(C)C)N(C)C(=O)C3(F)CCN(C(=O)C#CC(C)(C)N(C)C)CC3)C(=O)N3CCCC(N3)C(=O)OCC(C)(C)C2)C1
IC50 (second compound 0.000949 µM): > 10 µM
IC50 (second compound 0.003 µM): > 10 µM
IC50 (second compound 0.00949 µM): > 10 µM
IC50 (second compound 0.03 µM): > 10 µM
IC50 (second compound 0.0949 µM): > 10 µM
IC50 (second compound 0.3 µM): > 10 µM
viability, T/C [1]: 96.4%
viability, T/C [2]: 99.7%
viability, T/C [3]: 109%
viability, T/C [4]: 89.7%
viability, T/C [5]: 78.3%
viability, T/C [6]: 70.6%
viability, T/C [7]: 104%
viability, T/C [8]: 96.5%
viability, T/C [9]: 91.9%
viability, T/C [10]: 82.2%
viability, T/C [11]: 79.5%
viability, T/C [12]: 78.2%
viability, T/C [13]: 114%
viability, T/C [14]: 93%
viability, T/C [15]: 90%
viability, T/C [16]: 88.8%
viability, T/C [17]: 82.5%
viability, T/C [18]: 74.5%
viability, T/C [19]: 104%
viability, T/C [20]: 111%
viability, T/C [21]: 81.3%
viability, T/C [22]: 103%
viability, T/C [23]: 69.8%
viability, T/C [24]: 88.1%
viability, T/C [25]: 88.4%
viability, T/C [26]: 94.4%
viability, T/C [27]: 127%
viability, T/C [28]: 90%
viability, T/C [29]: 72.5%
viability, T/C [30]: 67.8%
viability, T/C [31]: 105%
viability, T/C [32]: 112%
viability, T/C [33]: 94.8%
viability, T/C [34]: 92.7%
viability, T/C [35]: 77.3%
viability, T/C [36]: 80.7%

CC(C)n1nc(-c2ccc3oc(N)nc3c2)c2c(N)ncnc21 + CCn1c(-c2cccnc2C(C)OC)c2c3cc(ccc31)N1CCOC(CC(NC(=O)C(C(C)C)N(C)C(=O)C3(F)CCN(C(=O)C#CC(C)(C)N(C)C)CC3)C(=O)N3CCCC(N3)C(=O)OCC(C)(C)C2)C1
IC50 (second compound 0.000949 µM): > 0.1 µM
IC50 (second compound 0.003 µM): > 0.1 µM
IC50 (second compound 0.00949 µM): > 0.1 µM
IC50 (second compound 0.03 µM): > 0.1 µM
IC50 (second compound 0.0949 µM): > 0.1 µM
IC50 (second compound 0.3 µM): > 0.1 µM
viability, T/C (second compound 0.000949 µM, first compound 0.000316 µM): 91.5%
viability, T/C (second compound 0.000949 µM, first compound 0.001 µM): 112%
viability, T/C (second compound 0.000949 µM, first compound 0.00316 µM): 87.1%
viability, T/C (second compound 0.000949 µM, first compound 0.01 µM): 76.9%
viability, T/C [1]: 65.7%
viability, T/C [2]: 59.7%
viability, T/C (second compound 0.003 µM, first compound 0.000316 µM): 84.5%
viability, T/C (second compound 0.003 µM, first compound 0.001 µM): 103%
viability, T/C (second compound 0.003 µM, first compound 0.00316 µM): 73.8%
viability, T/C (second compound 0.003 µM, first compound 0.01 µM): 73.6%
viability, T/C [7]: 75.3%
viability, T/C [8]: 70.1%
viability, T/C (second compound 0.00949 µM, first compound 0.000316 µM): 119%
viability, T/C (second compound 0.00949 µM, first compound 0.001 µM): 108%
viability, T/C (second compound 0.00949 µM, first compound 0.00316 µM): 98.5%
viability, T/C (second compound 0.00949 µM, first compound 0.01 µM): 80%
viability, T/C [13]: 67.8%
viability, T/C [14]: 59.1%
viability, T/C (second compound 0.03 µM, first compound 0.000316 µM): 110%
viability, T/C (second compound 0.03 µM, first compound 0.001 µM): 87.2%
viability, T/C (second compound 0.03 µM, first compound 0.00316 µM): 77.3%
viability, T/C (second compound 0.03 µM, first compound 0.01 µM): 86%
viability, T/C [19]: 66.9%
viability, T/C [20]: 50.2%
viability, T/C (second compound 0.0949 µM, first compound 0.000316 µM): 100%
viability, T/C (second compound 0.0949 µM, first compound 0.001 µM): 117%
viability, T/C (second compound 0.0949 µM, first compound 0.00316 µM): 86.9%
viability, T/C (second compound 0.0949 µM, first compound 0.01 µM): 75%
viability, T/C [25]: 68.1%
viability, T/C [26]: 48.5%
viability, T/C (second compound 0.3 µM, first compound 0.000316 µM): 107%
viability, T/C (second compound 0.3 µM, first compound 0.001 µM): 89.2%
viability, T/C (second compound 0.3 µM, first compound 0.00316 µM): 96.3%
viability, T/C (second compound 0.3 µM, first compound 0.01 µM): 73.2%
viability, T/C [31]: 71.6%
viability, T/C [32]: 57.3%

C[C@@H](NC(=O)c1ncnc(N)c1Cl)c1ncc(C(=O)Nc2cc(C(F)(F)F)c(Cl)cn2)s1 + CCn1c(-c2cccnc2C(C)OC)c2c3cc(ccc31)N1CCOC(CC(NC(=O)C(C(C)C)N(C)C(=O)C3(F)CCN(C(=O)C#CC(C)(C)N(C)C)CC3)C(=O)N3CCCC(N3)C(=O)OCC(C)(C)C2)C1
IC50 (second compound 0.000949 µM): > 10 µM
IC50 (second compound 0.003 µM): > 10 µM
IC50 (second compound 0.00949 µM): > 10 µM
IC50 (second compound 0.03 µM): > 10 µM
IC50 (second compound 0.0949 µM): > 10 µM
IC50 (second compound 0.3 µM): > 10 µM
viability, T/C [1]: 111%
viability, T/C [2]: 118%
viability, T/C [3]: 119%
viability, T/C [4]: 90.6%
viability, T/C [5]: 80.8%
viability, T/C [6]: 64.5%
viability, T/C [7]: 112%
viability, T/C [8]: 92.7%
viability, T/C [9]: 99.8%
viability, T/C [10]: 82.1%
viability, T/C [11]: 63.6%
viability, T/C [12]: 57.3%
viability, T/C [13]: 93.7%
viability, T/C [14]: 89%
viability, T/C [15]: 78.5%
viability, T/C [16]: 109%
viability, T/C [17]: 70.1%
viability, T/C [18]: 58.9%
viability, T/C [19]: 92.8%
viability, T/C [20]: 117%
viability, T/C [21]: 91%
viability, T/C [22]: 84.3%
viability, T/C [23]: 75.8%
viability, T/C [24]: 81.1%
viability, T/C [25]: 83.2%
viability, T/C [26]: 93.6%
viability, T/C [27]: 76.5%
viability, T/C [28]: 73.1%
viability, T/C [29]: 71.8%
viability, T/C [30]: 71.3%
viability, T/C [31]: 80.7%
viability, T/C [32]: 99.1%
viability, T/C [33]: 96.8%
viability, T/C [34]: 86.2%
viability, T/C [35]: 81.4%
viability, T/C [36]: 66.9%
